Measured values reported in patent publication US5804402A, “Reagent” (priority 1995, dated 1998).

Molecular target: T1, L-alanine dehydrogenase (A.D) (Bacillus subtilis, UniProt Q08352)
T1 sequence (Q08352 1-378): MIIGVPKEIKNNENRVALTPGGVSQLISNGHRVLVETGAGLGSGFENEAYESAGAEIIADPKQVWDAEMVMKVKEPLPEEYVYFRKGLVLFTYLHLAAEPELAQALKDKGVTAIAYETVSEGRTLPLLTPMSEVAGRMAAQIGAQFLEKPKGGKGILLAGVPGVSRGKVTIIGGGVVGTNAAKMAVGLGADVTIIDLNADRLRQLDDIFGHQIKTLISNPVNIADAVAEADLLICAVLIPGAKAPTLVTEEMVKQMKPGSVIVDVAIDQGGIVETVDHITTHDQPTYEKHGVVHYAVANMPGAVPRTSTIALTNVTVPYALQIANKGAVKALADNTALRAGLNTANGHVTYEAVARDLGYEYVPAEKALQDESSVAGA
Assay: Relative activity of substrate with L-alanine dehydrogenase
Assay type: biochemical
Settings: relative to L-alanine (100%)
Text: If L-alanine dehydrogenase (A.D) is used as the enzyme in a reaction system similar to that used for leucine dehydrogenase, a suitable substrate and its activity relative to L-alanine (100%) is […]

Relative Activity: 5%
SMILES: N[C@@H](CO)C(=O)O [L-serine]
